The test system of series [1] is coronary-perfused canine left ventricular (LV) preparations. Kind of series: Electrophysiology in isolated coronary-perfused canine left ventricular preparations. To be noted: current in vitro investigation. As for the experimental part: Experiments were performed using isolated coronary-perfused canine right atrial (RA) and left ventricular (LV) preparations (≈3×1.5×1 cm). Isolation and perfusion of the preparations were as previously described.^9, 15, 16 Briefly, preparations were dissected from hearts removed from anesthetized (sodium pentobarbital) adult mongrel dogs (20-30 kg). Unfolded RA with attached rim of the right ventricle was cannulated and perfused with cold cardioplegic solution (4-8° C.) through the ostium of the right coronary artery; the LV wedge was perfused through a diagonal branch of the left anterior descending coronary artery. Unperfused tissue was removed with a razor blade. […]
Transmembrane action potential (AP) recordings were obtained using floating glass microelectrodes at a sampling rate of 40 kHz. A pseudo-electrocardiogram (ECG) was recorded using two electrodes consisting of Ag/AgCl half cells placed in the Tyrode's solution bathing the preparation, 1.0 to 1.5 cm from the two opposite sides of the atrial or ventricular coronary-perfused preparations. […] Diastolic threshold of excitation (DTE) was determined by increasing stimulus intensity in 0.01 mA steps. Effective refractory period (ERP) was measured by delivering premature stimuli at progressively shorter S1-S2 intervals after every 10 basic beats at a pacing cycle length (CL) of 500 ms (5 ms steps; 2 times DTE). […]

Series [2] relates to female rabbit isolated heart treated with E-4031. The series can be described thus: Torsades de pointes in rabbit isolated heart treated with E-4031. As to conditions: E-4031 60 nM; dronedarone 10 μM. As for the experimental part:
Each rabbit was sedated using intramuscular injections of 6 mg/kg xylazine and 40 mg/kg ketamine and then anesthetized using a “cocktail” of ketamine (15 mg/kg)+xylazine (4 mg/kg) in 1.5 ml saline. The ketamine/xylazine cocktail was administered as an i.v. bolus via the marginal ear vein. After anesthesia was confirmed, the thorax was opened and the heart was quickly excised. The heart was placed in a modified Krebs-Henseleit (K-H) physiological saline solution at room temperature. […] CPP was measured (with a Biopac MP 150 pressure transducer, Goleta, Calif.) from a side port of the aortic catheter. To facilitate exit of fluid from the chamber of the left ventricle (LV), the leaflets of the mitral valve were trimmed with fine spring-handled scissors. The right atrial wall was partially removed.
Complete AV block was induced by thermo-ablation of the AV nodal area. […] A bipolar Teflon-coated electrode was placed on the right ventricular septum to pace the heart. Electrical stimuli 3 ms in width and 3-fold threshold amplitude were delivered to the pacing electrode at a frequency of 1 Hz throughout the experiments using a Grass S48 stimulator (W. Warwick, R.I.).
After initiation of ventricular pacing, a 30-40 min equilibration delay was allowed for heart rate (and CPP) to achieve a steady state, an essential experimental condition for recording a good quality monophasic action potential (MAP) recording.
Monophasic action potential (MAP) and ECG electrodes from Harvard Apparatus Inc. (Holliston, Mass.) were used to record heart rate (in beats per minute, or bpm), left ventricular MAPs and a bipolar ECG MAP electrodes were pressure contact Ag—AgCl cells attached to a circular holder with springs to keep the electrodes in contact with the LV epicardial surface. Two MAP electrodes were placed on the epicardial ventricular free wall below the level of the atrial-ventricular valves, one at the base to record a basal MAP and one at the apex to record an apical MAP. […] Signals were saved on a computer hard disk for subsequent analysis. Bipolar electrocardiograms (ECG) were generated using an isolated-heart ECG apparatus (Harvard Apparatus, Holliston, Mass.) attached to Biopac amplifier system.

A further series deals with T1, hNav1.5 (Homo sapiens, UniProt Q14524).
T1 construct: expressed in transfected cells; host or cells: HEK293
T1 sequence (Q14524 whole entry): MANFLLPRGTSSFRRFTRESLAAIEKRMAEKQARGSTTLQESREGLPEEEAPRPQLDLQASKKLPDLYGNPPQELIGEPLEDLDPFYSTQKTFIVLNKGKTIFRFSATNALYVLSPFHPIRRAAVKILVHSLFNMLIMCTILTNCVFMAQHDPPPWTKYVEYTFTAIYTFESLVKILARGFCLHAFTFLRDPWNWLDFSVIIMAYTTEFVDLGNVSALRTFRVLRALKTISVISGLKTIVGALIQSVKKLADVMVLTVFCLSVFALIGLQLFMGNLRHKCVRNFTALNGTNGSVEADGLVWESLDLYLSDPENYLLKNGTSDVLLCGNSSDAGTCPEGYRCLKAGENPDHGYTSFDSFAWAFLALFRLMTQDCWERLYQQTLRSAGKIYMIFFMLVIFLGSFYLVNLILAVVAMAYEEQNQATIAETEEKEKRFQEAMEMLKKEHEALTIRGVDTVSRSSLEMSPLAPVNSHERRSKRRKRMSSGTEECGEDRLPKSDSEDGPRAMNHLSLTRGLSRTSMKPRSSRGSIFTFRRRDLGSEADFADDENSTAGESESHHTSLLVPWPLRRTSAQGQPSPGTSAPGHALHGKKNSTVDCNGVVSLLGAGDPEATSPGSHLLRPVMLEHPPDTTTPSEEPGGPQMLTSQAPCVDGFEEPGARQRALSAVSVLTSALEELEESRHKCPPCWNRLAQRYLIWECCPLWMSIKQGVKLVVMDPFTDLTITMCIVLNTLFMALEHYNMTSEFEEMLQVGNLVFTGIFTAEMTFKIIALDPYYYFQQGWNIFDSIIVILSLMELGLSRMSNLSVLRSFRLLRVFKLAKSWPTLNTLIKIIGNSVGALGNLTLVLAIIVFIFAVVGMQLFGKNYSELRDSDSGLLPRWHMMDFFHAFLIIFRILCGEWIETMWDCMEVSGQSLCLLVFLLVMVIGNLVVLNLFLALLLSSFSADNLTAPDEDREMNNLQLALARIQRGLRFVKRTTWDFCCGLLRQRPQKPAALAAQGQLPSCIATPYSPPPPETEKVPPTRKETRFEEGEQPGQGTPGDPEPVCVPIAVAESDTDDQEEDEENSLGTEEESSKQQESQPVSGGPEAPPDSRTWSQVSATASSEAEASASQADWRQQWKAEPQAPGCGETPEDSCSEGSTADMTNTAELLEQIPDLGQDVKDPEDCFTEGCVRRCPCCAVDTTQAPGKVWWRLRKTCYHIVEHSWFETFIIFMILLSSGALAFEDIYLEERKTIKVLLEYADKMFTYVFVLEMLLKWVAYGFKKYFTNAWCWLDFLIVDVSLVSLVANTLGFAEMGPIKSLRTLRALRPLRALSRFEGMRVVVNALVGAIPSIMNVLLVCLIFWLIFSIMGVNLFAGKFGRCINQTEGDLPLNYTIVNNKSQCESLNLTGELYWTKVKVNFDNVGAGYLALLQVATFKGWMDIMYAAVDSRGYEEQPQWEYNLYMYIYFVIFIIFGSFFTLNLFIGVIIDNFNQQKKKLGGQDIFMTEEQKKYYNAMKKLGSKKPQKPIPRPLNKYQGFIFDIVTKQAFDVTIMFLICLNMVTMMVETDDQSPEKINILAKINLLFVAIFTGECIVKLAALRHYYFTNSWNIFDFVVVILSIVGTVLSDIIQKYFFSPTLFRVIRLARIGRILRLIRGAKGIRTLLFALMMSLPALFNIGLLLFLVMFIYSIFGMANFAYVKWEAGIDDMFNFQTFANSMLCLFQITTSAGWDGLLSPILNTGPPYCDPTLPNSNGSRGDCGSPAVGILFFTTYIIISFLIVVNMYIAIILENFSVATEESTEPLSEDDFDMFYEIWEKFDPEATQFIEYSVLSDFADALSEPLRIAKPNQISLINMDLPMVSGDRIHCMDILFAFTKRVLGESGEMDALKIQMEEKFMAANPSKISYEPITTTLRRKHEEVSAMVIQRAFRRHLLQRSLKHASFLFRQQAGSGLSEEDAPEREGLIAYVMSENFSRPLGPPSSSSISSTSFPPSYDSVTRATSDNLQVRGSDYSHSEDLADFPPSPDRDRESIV
The series can be described thus: Tefluthrin-induced late sodium current in HEK293 cells expressing hNav1.5. As to conditions: HEK293 cells expressing hNav1.5, tefluthrin 10 μM; read-out: Concentration causing a half-maximal inhibition of late Na+. The class given is cell-based. The protocol:
The effect of dronedarone on late INa has not been reported. Therefore we determined the effect of dronedarone on late INa induced by incubation of HEK293 cells expressing the human heart sodium channel gene Nav1.5 with the late INa enhancer tefluthrin. […] Thus, the combination of dronedarone and ranolazine may be anticipated to reduce late INa. A reduction of late INa in the heart has been associated with a reduction of atrial arrhythmias in patients and in animal models of atrial fibrillation.

The conditions of series [3]: in vivo; cited from earlier work.

`CCCCc1oc2ccc(NS(C)(=O)=O)cc2c1C(=O)c1ccc(OCCCN(CCCC)CCCC)cc1` [Dronedarone, N-(2-Butyl-3-(p-(3-(dibutylamino)propoxy)benzoyl)-5-benzofuranyl)methanesulfonamide]: in series [1], the “Prolongation of ventricular ERP” value is 4%. Besides, in series [2], the “Occurrences of torsades de pointes (TdP) (hearts)” value is recorded as 1/6. On hNav1.5, the IC50 came to 4 µM. In series [3], the Half-life of elimination entry is recorded as “about 24 hours”.

These data come from patent US9056108B2, “Method of treating atrial fibrillation” (Gilead Sciences, Inc., priority 2009, dated 2015).
